# Experiments:
# [1] = tested on: human vaginal epithelial cells of the A-431 cell line; format: cell-based
# Description: Test of totarol impact on the human vaginal epithelial cells of the A-431 cell line (ATCC® The study was carried out using the following test: Annexin-V-Fluos (Roche, Mannheim, Germany), during incubation for 2, 8 and 24 hours, under in vitro conditions, according to the instructions of the test's manufacturer. The totarol sample was prepared by dissolution of 3 mg of totarol in 3 ml of 100% DMI.
# The cultivation time for the A-431 cell line was 20 days. The culture was carried out at a temperature of 37° C. in an atmosphere containing 10% CO2, on a DMEM culture medium (Institute of Immunology and Experimental Therapy PAS [IITD PAN], Wroclaw), with an addition of 10% of foetal bovine serum (FBS, Sigma-Aldrich). The culture fluid were being replaced regularly every 48 hours. After achieving a decantable growth or the so-called “monolayer”, the cells were passaged using (for approx. 10 min) 0.25% trypsin (Sigma-Aldrich). Then, the obtained tissue line was passed to 24-well plates (TPP), adjusting their densities to the value of 5×10^5 per well. The tissue culture of the studied lines was carried out for 3 next days on the surface of sterile microscope slides placed on the bottom of a 24-well plate, until a decantable growth was obtained on the surface of the microscope slides. After obtaining the so-called “monolayer”, the cells were washed with PBS without Ca^2+ and Mg^2+ ions (IITD PAN, Wroclaw), and poured with 700 µl of fresh DMEM medium with 10% FBS, together with 300 μl of properly prepared totarol. • Negative control: 1000 μl of fresh DMEM medium with 10% FBS. • Solvent control: 700 μl of fresh DMEM medium with 10% FBS+300 μl of DMI solvent. • Necrosis positive control: 900 μl of fresh DMEM medium with 10% FBS+100 μl H2O2 (30%). The proper examination using the Annexin-V-Fluos test causes green staining of apoptotic cells. […] This dye has an ability to penetrate the cell's interior freely only through a damaged cellular membrane, staining the interior red. In the case of a lack of damages of the cellular membrane, propidium iodide remains on its surface, forming a characteristic red “halo” around the cell. After a corresponding study time, i.e. 2, 8, and 24 hours, the culture fluid was removed, the content was washed with PBS (pre-heated to a temperature of 37° C.) twice. Then, 100 μl of the fluorescent stains mixture including in the Annexin-V-Fluos (Roche) kit were applied on the surface of each microscope slide (placed in a culture well) and additionally, Hoechst stain was used (cellular DNA staining). The staining procedure was carried out according to the manufacturer's recommendations. The culture together with the stains applied onto it were incubated at room temperature for 20 min. The intensity of light emitted by the cells stained with the individual stains was observed using a fluorescent microscope at the wavelength of 494-520 nm, using 400× magnification. The cells were counted in five visual fields, and the results were averaged. The reliability of the tests carried out is confirmed by hydrogen peroxide used as a positive control, causing a distinct necrosis process already after 2 hours of incubation. Data analyses were carried out on the basis of the average number of cells from five visual fields in the individual times (2, 8, and 24 h). The results are presented in Table 6 and in the form of photographic documentation—FIGS. 1, 2, 3, 4.
# [2] = tested on: Gardnerella vaginalis; conditions: cited from earlier work
Alive cells [1],Structure (SMILES),Apopt. cells [1],Necrot. Cells [1],Necrot. cells [1],"apoptosis and necrosis in epithelial cells, photographic documentation [1]","metronidazole-resistant strain percentage ([2]; Goldstein et al., 1993) [%]","percentage of resistant strains ([2]; Goldstein et al., 2002) [%]","studied strains characterised by resistance to metronidazole ([2]; Poland, 67 strains isolated from 604 females (46 out of 67)) [%]",resistance of Gardnerella vaginalis strains to metronidazole ([2]; studies published in 2007) [%]
0,"OO [Necrosis positive control, reference compound]",0,100,100,Necrotic cells,,,,
,Cc1ncc([N+](=O)[O-])n1CCO [metronidazole],,,,,20,29,68.7,70

# — US11534412B2, “Application of totarol and pharmaceutical composition containing totarol” (Emergopharm SP. Z O.O. SP.K., priority 2017, dated 2022)
